Reference: publication PMC6792352, “Limited Chemical Structural Diversity Found to Modulate Thyroid Hormone Receptor in the Tox21 Chemical Library” (Environmental Health Perspectives, 2019)
Counter-ions that a name gives are not always drawn.

Test: in vitro
Conditions: rat, gh3-tre-luc cells, AC50 (uM) modified / 1000

`COCC(C)OCC(C)OC(C)=O` (centres unmarked) [Dipropyleneglycol methyl ether acetate] and `C=COCC(C)C` [Vinyl isobutyl ether] cannot be ordered by CC50 at 24 h: > 90 µM for the first, > 100 µM for the second.

Compared with `Clc1cc(Cl)c(Cl)nc1Cl` [2,3,5,6-Tetrachloropyridine], `N#Cc1nc(Cl)c(Cl)c(Cl)c1Cl` [3,4,5,6-Tetrachloropyridine-2-carbonitrile] is lower in CC50 at 24 h: > 90 µM for the first, 3 µM for the second.

`Cc1ccc(Cl)c(N)c1Cl` [2,6-Dichloro-3-methylaniline] and `O=C(Cl)c1c(Cl)cccc1Cl` [2,6-Dichlorobenzoyl chloride] cannot be ordered by CC50 at 24 h: > 90 µM for the first, > 90 µM for the second.

`N#CNC(=N)N` [Cyanoguanidine] and `CN/C(=N/CCSCc1nc[nH]c1C)NC#N` [Cimetidine] cannot be ordered by CC50 at 24 h: > 90 µM for the first, > 90 µM for the second.

`CCCCS(=O)(=O)Cl` [Butane-1-sulfonyl chloride] and `CCCCOCCO` [2-Butoxyethanol] cannot be ordered by CC50 at 24 h: > 90 µM for the first, > 90 µM for the second.

Compared with `NC(N)=NN=C(/C=C/c1ccc([N+](=O)[O-])o1)/C=C/c1ccc([N+](=O)[O-])o1` [Nitrovin], `NC(=O)OCC(O)COc1ccc(Cl)cc1` (centres unmarked) [Chlorphenesin carbamate] is higher in CC50 at 24 h: 1.82 µM for the first, > 20 µM for the second.

`ClC(Cl)(Cl)c1ccc(C(Cl)(Cl)Cl)cc1` [1,4-Bis(trichloromethyl)benzene] and `CCOC(=O)c1ccc(I)cc1` [Ethyl 4-iodobenzoate] cannot be ordered by CC50 at 24 h: > 90 µM for the first, > 90 µM for the second.

`COc1ccc(CCC(=O)c2c(O)cc(O[C@@H]3O[C@H](CO)[C@@H](O)[C@H](O)[C@H]3O[C@@H]3O[C@@H](C)[C@H](O)[C@@H](O)[C@H]3O)cc2O)cc1O` [Neohesperidin dihydrochalcone] and `OC[C@H]1O[C@H](O[C@@]2(CO)O[C@@H](O)[C@H](O)[C@@H]2O)[C@H](O)[C@@H](O)[C@@H]1O` [alpha-L-Lyxo-hex-5-ulofuranosyl alpha-D-glucopyranoside] cannot be ordered by CC50 at 24 h: > 90 µM for the first, > 50 µM for the second.

`Cc1ccc(OC(=O)CC(C)C)cc1` [4-Methylphenyl 3-methylbutanoate] and `CCOc1ccc(NC(C)=O)cc1` [Phenacetin] cannot be ordered by CC50 at 24 h: > 90 µM for the first, > 50 µM for the second.

`C=C1C[C@]23C[C@@]1(O)CC[C@H]2[C@@]12C=C[C@H](O)[C@@](C)(C(=O)O1)[C@H]2[C@@H]3C(=O)O` [Gibberellic acid] and `C[C@H]1O[C@@H](O[C@H]2[C@@H](O)C[C@H](O[C@H]3[C@@H](O)C[C@H](O[C@H]4CC[C@@]5(C)[C@H](CC[C@@H]6[C@@H]5CC[C@]5(C)[C@@H](C7=CC(=O)OC7)CC[C@]65O)C4)O[C@@H]3C)O[C@@H]2C)C[C@H](O)[C@@H]1O` [Digitoxin] cannot be ordered by CC50 at 24 h: > 90 µM for the first, > 60 µM for the second.

`CC(=O)c1ccc(OCC(=O)N2CCCCC2)cc1` [4'-Piperidinylcarbonylmethoxyacetophenone] and `CCOc1ccc(C(=O)OCCN(CC)CC)cc1` [Parethoxycaine] cannot be ordered by CC50 at 24 h: > 50 µM for the first, > 50 µM for the second.

`CN1C(CCl)Nc2cc(Cl)c(S(N)(=O)=O)cc2S1(=O)=O` (centres unmarked) [Methyclothiazide] and `CCCn1c(=O)[nH]c(=O)c2[nH]cnc21` [Enprofylline] cannot be ordered by CC50 at 24 h: > 50 µM for the first, > 50 µM for the second.

`CO[C@@]1(NC(=O)[C@H](C(=O)O)c2ccc(O)cc2)C(=O)N2C(C(=O)O)=C(CSc3nnnn3C)CO[C@@H]21` [Moxalactam disodium] and `O=C(O)c1cc(O)c2c3nc4ccccc4oc-3cc(=O)c2n1` [Pirenoxine sodium] cannot be ordered by CC50 at 24 h: > 20 µM for the first, > 50 µM for the second.

Going from `CN1CCN2c3ncccc3Cc3ccccc3C2C1` (centres unmarked) [Mirtazapine] to `OCCN1CCN(CC/C=C2/c3ccccc3Sc3ccc(Cl)cc32)CC1` [Zuclopenthixol dihydrochloride], the CC50 at 24 h falls from > 50 µM to 8.55 µM.

`C=COCC1CCC(CO)CC1` (centres unmarked) [{4-[(Ethenyloxy)methyl]cyclohexyl}methanol] and `NC(=O)CCCCC1CCSS1` (stereo not drawn) [alpha-Lipoic acid amide] cannot be ordered by CC50 at 24 h: > 90 µM for the first, > 50 µM for the second.

`CC(C)(C)NC(N)=O` [(1,1-Dimethylethyl)urea] and `CC(CCO)CCCC(C)(C)O` (centres unmarked) [3,7-Dimethyloctane-1,7-diol] cannot be ordered by CC50 at 24 h: > 90 µM for the first, > 90 µM for the second.

`CCCCCCCCCCCCOC(C)=O` [Dodecyl acetate] and `CCCCCCCC/C=C\CCCCCCCC(=O)OCCCC` [9-Octadecenoic acid (9Z)-, butyl ester] cannot be ordered by CC50 at 24 h: > 90 µM for the first, > 20 µM for the second.

`O=C(NC(Cc1cc(=O)[nH]c2ccccc12)C(=O)O)c1ccc(Cl)cc1` (centres unmarked) [Rebamipide] and `O=C1c2ccccc2C(=O)c2c(O)c(O)cc(O)c21` [Purpurin] cannot be ordered by CC50 at 24 h: > 50 µM for the first, 71.9 µM for the second.

First: FC(F)(F)C(Cl)Br (centres unmarked) [Halothane]
Second: O=C(NCC1CCCCN1)c1cc(OCC(F)(F)F)ccc1OCC(F)(F)F (centres unmarked) [Flecainide acetate]
The CC50 at 24 h of the first is higher: > 90 µM for the first, 42.2 µM for the second.

`O=C(O)c1ccccc1S` [2-Thiosalicylic acid] and `O=Cc1ccccc1S(=O)(=O)O` [Sodium 2-formylbenzenesulfonate] cannot be ordered by CC50 at 24 h: > 50 µM for the first, > 90 µM for the second.

`COc1ccc(Cc2cnc(N)nc2N)cc1OC` [Diaveridine] and `CCN(CC)CCOc1ccccc1OC` [Guaiactamine] cannot be ordered by CC50 at 24 h: > 50 µM for the first, > 50 µM for the second.

`Nc1ccc(F)cc1F` [2,4-Difluoroaniline] and `CN(C)CCc1c[nH]c2ccccc12` [N,N-Dimethyltryptamine fumarate] cannot be ordered by CC50 at 24 h: > 90 µM for the first, > 100 µM for the second.

`O=C(OCc1ccccc1)c1cccnc1` [Benzyl nicotinate] and `c1ccc(Oc2ccccc2)cc1` [Diphenyl oxide] cannot be ordered by CC50 at 24 h: > 50 µM for the first, > 90 µM for the second.

`C=CC(=O)CC` [Ethyl vinyl ketone] and `CCC(=O)OC/C=C/c1ccccc1` [(2E)-3-Phenylprop-2-en-1-yl propanoate] cannot be ordered by CC50 at 24 h: > 90 µM for the first, > 90 µM for the second.

`NCc1cccnc1` [3-(Aminomethyl)pyridine] and `N#Cc1ccccc1C#N` [1,2-Benzenedicarbonitrile] cannot be ordered by CC50 at 24 h: > 90 µM for the first, > 70 µM for the second.

First: CC(O)C(CO)C(C)O (centres unmarked) [3-(Hydroxymethyl)pentane-2,4-diol]
Second: Cc1cc(F)ccc1-c1cc(N2CC[C@@H](O)[C@H]2CO)ncc1N(C)C(=O)C(C)(C)c1cc(C(F)(F)F)cc(C(F)(F)F)c1 [PharmaGSID_48513]
The CC50 at 24 h of the first is higher: > 90 µM for the first, 12.5 µM for the second.

`O=C(COCCOCCOCC(=O)Nc1c(I)cc(I)c(C(=O)O)c1I)Nc1c(I)cc(I)c(C(=O)O)c1I` [Biliscopin] and `CCCCCOC(=O)COc1cc(N2C(=O)C3=C(CCCC3)C2=O)c(F)cc1Cl` [Flumiclorac-pentyl] cannot be ordered by CC50 at 24 h: > 50 µM for the first, > 90 µM for the second.

`CCCCCCCCCCCCCCCCCC[N+](C)(C)CCC[Si](OC)(OC)OC` [N,N-Dimethyl-N-(3-(trimethoxysilyl)propyl) octadecan-1-aminium chloride] and `Cc1cc(-c2cc(C)c(N)c(C)c2)cc(C)c1N` [3,3',5,5'-Tetramethylbenzidine] cannot be ordered by CC50 at 24 h: > 50 µM for the first, > 90 µM for the second.

Compared with `c1ccc(C(O[C@@H]2CCCN(CCc3ccc4c(c3)OCO4)C2)c2ccccc2)cc1` [Zamifenacin fumarate], `Cc1c(I)c(=O)n(-c2ccccc2)n1C` [Iodoantipyrine] is higher in CC50 at 24 h: 26.4 µM for the first, > 50 µM for the second.

Same assay, conditions: rat, gh3-tre-luc cells, AC50 (uM) modified / 1000, Tox21_110001=Tox21_111058; viability, 1 nM T3 present, 24 h

In the case of `C[C@]12CC[C@H]3[C@@H](CCC4=CC(=O)CC[C@@]43C)[C@@H]1CC[C@H]2O` [Epitestosterone], the CC50 at 24 h is reported as > 50 µM.

Same assay, conditions: rat, gh3-tre-luc cells, AC50 (uM) modified / 1000, Tox21_110001=Tox21_111336; viability, 1 nM T3 present, 24 h

In the case of `CC(=O)Nc1cc([As](=O)(O)O)ccc1O` [Acetarsol], the CC50 at 24 h is reported as > 50 µM.

Same assay, conditions: rat, gh3-tre-luc cells, AC50 (uM) modified / 1000, Tox21_110001=Tox21_111602; viability, 1 nM T3 present, 24 h

For `CC1CCC(C(C)C)C(OC(=O)c2ccccc2N)C1` (centres unmarked) [Menthyl anthranilate], the CC50 at 24 h was 42.1 µM.

Same assay, conditions: rat, gh3-tre-luc cells, AC50 (uM) modified / 1000, Tox21_110001=Tox21_111708; viability, 1 nM T3 present, 24 h

For `OC[C@@H](O)[C@H]1O[C@@H]2O[C@H](C(Cl)(Cl)Cl)O[C@@H]2[C@H]1O` [Chloralose], the CC50 at 24 h was > 50 µM.

Same assay, conditions: rat, gh3-tre-luc cells, AC50 (uM) modified / 1000, Tox21_110001=Tox21_112623; viability, 1 nM T3 present, 24 h

In the case of `CC(C)=CC1C(C(=O)OCN2C(=O)C3=C(CCCC3)C2=O)C1(C)C` (centres unmarked) [Tetramethrin], the CC50 at 24 h is reported as > 50 µM.

Same assay, conditions: rat, gh3-tre-luc cells, AC50 (uM) modified / 1000, Tox21_110001=Tox21_113550; viability, 1 nM T3 present, 24 h

For `CC=C(CC)C(=O)NC(N)=O` [1-(2-Ethylcrotonoyl)urea], the CC50 at 24 h was > 50 µM.

Same assay, conditions: rat, gh3-tre-luc cells, AC50 (uM) modified / 1000, Tox21_110001=Tox21_200129; viability, 1 nM T3 present, 24 h

For `SCc1ccccc1` [Benzenemethanethiol], the CC50 at 24 h was > 90 µM.

Same assay, conditions: rat, gh3-tre-luc cells, AC50 (uM) modified / 1000, Tox21_110001=Tox21_200522; viability, 1 nM T3 present, 24 h

For `O=C1CCCCC1Cl` (centres unmarked) [2-Chlorocyclohexanone], the CC50 at 24 h was > 90 µM.

Same assay, conditions: rat, gh3-tre-luc cells, AC50 (uM) modified / 1000, Tox21_110001=Tox21_200561; viability, 1 nM T3 present, 24 h

For `CC1CCC(C(C)C)C(OC(=O)c2ccccc2N)C1` (centres unmarked) [Menthyl anthranilate], the CC50 at 24 h was 27.5 µM.

Same assay, conditions: rat, gh3-tre-luc cells, AC50 (uM) modified / 1000, Tox21_110001=Tox21_200709; viability, 1 nM T3 present, 24 h

For `OCC(Br)CBr` (centres unmarked) [2,3-Dibromopropanol], the CC50 at 24 h was > 90 µM.

Same assay, conditions: rat, gh3-tre-luc cells, AC50 (uM) modified / 1000, Tox21_110001=Tox21_201447; viability, 1 nM T3 present, 24 h

In the case of `OC[C@@H](O)[C@H]1O[C@@H]2O[C@H](C(Cl)(Cl)Cl)O[C@@H]2[C@H]1O` [Chloralose], the CC50 at 24 h is reported as > 90 µM.

Same assay, conditions: rat, gh3-tre-luc cells, AC50 (uM) modified / 1000, Tox21_110001=Tox21_202983; viability, 1 nM T3 present, 24 h

`Cc1ccccc1OP(=O)(Oc1ccccc1C)Oc1ccccc1C` [Tri-o-cresyl phosphate] showed a CC50 at 24 h of 63.4 µM.

Same assay, conditions: rat, gh3-tre-luc cells, AC50 (uM) modified / 1000, Tox21_110001=Tox21_301017; viability, 1 nM T3 present, 24 h

For `CC(C)=CC1C(C(=O)OCN2C(=O)C3=C(CCCC3)C2=O)C1(C)C` (centres unmarked) [Tetramethrin], the CC50 at 24 h was > 90 µM.

Same assay, conditions: rat, gh3-tre-luc cells, AC50 (uM) modified / 1000, Tox21_110001=Tox21_301256; viability, 1 nM T3 present, 24 h

With `CC(=O)c1cc2c(cc1C)C(C)(C)C(C)CC2(C)C` (centres unmarked) [6-Acetyl-1,1,2,4,4,7-hexamethyltetralin] the CC50 at 24 h was 45.6 µM.

Same assay, conditions: rat, gh3-tre-luc cells, AC50 (uM) modified / 1000, Tox21_110001=Tox21_301477; viability, 1 nM T3 present, 24 h

In the case of `N#Cc1ccc(Cl)cc1` [4-Chlorobenzonitrile], the CC50 at 24 h is reported as > 90 µM.

Same assay, conditions: rat, gh3-tre-luc cells, AC50 (uM) modified / 1000, Tox21_110001=Tox21_302658; viability, 1 nM T3 present, 24 h

With `CC(=O)CCc1ccc2c(c1)OCO2` [Piperonyl acetone] the CC50 at 24 h was > 90 µM.
